Results taken from patent publication US5672715A, “Herbicidal substituted 3-aryl-pyrazoles” (Monsanto Company, priority 1995, dated 1997).
Like-named read-outs stand apart in the source and are kept apart here.

What was measured:
Format in all cases: in vivo
Corn [1] = assay: pre-emergence herbicide test
Procedure, shortened: (§1)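 Sown seeds covered with dosed topsoil; carrier acetone or water; greenhouse, watered from below, optional 1/4 in overhead irrigation post-treatment; % inhibition at ~14 d.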

Barnyardgrass = assay: pre-emergence herbicide test; details: Echinochloa crus-galli, pre-emergence, read-out: % plant inhibition
Procedure, shortened: as §1

Yellow Nutsedge [2] = assay: pre-emergence herbicide test; details: Cyperus, read-out: % plant inhibition
Procedure, shortened: as §1

Morning Glory [3] = assay: pre-emergence herbicide test
Procedure, shortened: as §1

Yellow Foxtail [4] = assay: pre-emergence herbicide test; details: Setaria, read-out: % plant inhibition
Procedure, shortened: as §1

Cocklebur = assay: pre-emergence herbicide test
Procedure, shortened: as §1

Rice = assay: pre-emergence herbicide test; details: Oryza sativa, read-out: % plant inhibition
Procedure, shortened: as §1

Velvetleaf [5] = assay: pre-emergence herbicide test
Procedure, shortened: as §1

Soybean = assay: pre-emergence herbicide test; details: Glycine max, pre-emergence, read-out: % plant inhibition
Procedure, shortened: as §1

Common Chickweed = assay: post-emergence herbicide test
Procedure, shortened: (§2)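 Two- to three-week-old plants, greenhouse-grown in compacted topsoil, received candidate chemical by atomizer spray at 1870 L/Ha. Scored as percent inhibition.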

Corn [6] = assay: post-emergence herbicide test; details: Zea mays, post-emergence, read-out: % plant inhibition
Procedure, shortened: as §2

Yellow Nutsedge [7] = assay: post-emergence herbicide test; details: Cyperus, read-out: % plant inhibition
Procedure, shortened: as §2

Morning Glory [8] = assay: post-emergence herbicide test
Procedure, shortened: as §2

Yellow Foxtail [9] = assay: post-emergence herbicide test; details: Setaria, read-out: % plant inhibition
Procedure, shortened: as §2

Blackgrass = assay: post-emergence herbicide test; details: Alopecurus myosuroides, post-emergence, read-out: % plant inhibition; for inhibition at 7.95803 g/ha: 0.0071 lb/A; for inhibition at 40.0143 g/ha: 0.0357 lb/A; for inhibition at 1000.92 g/ha: 0.893 lb/A; for inhibition at 5043.82 g/ha: 4.5 lb/A
Procedure, shortened: as §2

Velvetleaf [10] = assay: post-emergence herbicide test
Procedure, shortened: as §2

Cc1c(-c2cc(F)c([N+](=O)[O-])cc2F)nn(C)c1C(F)(F)F [Compound 35]
% plant inhibition (Corn [1]; 0.1785 lb/A): 5%
inhibition at 40.0143 g/ha (Corn [1]; Zea mays, pre-emergence, 0.0357 lb/A, read-out: % plant inhibition): 0%
inhibition at 5043.82 g/ha (Corn [1]; Zea mays, pre-emergence, 4.5 lb/A, read-out: % plant inhibition): 55%
inhibition at 40.0143 g/ha (Barnyardgrass; 0.0357 lb/A): 0%
inhibition at 200.072 g/ha (Barnyardgrass; 0.1785 lb/A): 0%
inhibition at 5043.82 g/ha (Barnyardgrass; 4.5 lb/A): 95%
inhibition at 40.0143 g/ha (Yellow Nutsedge [2]; 0.0357 lb/A): 0%
inhibition at 200.072 g/ha (Yellow Nutsedge [2]; 0.1785 lb/A): 0%
inhibition at 5043.82 g/ha (Yellow Nutsedge [2]; 4.5 lb/A): 30%
% plant inhibition (Morning Glory [3]; 0.893 lb/A): 80%
inhibition at 40.0143 g/ha (Morning Glory [3]; Ipomoea, pre-emergence, 0.0357 lb/A, read-out: % plant inhibition): 0%
inhibition at 1000.92 g/ha (Morning Glory [3]; Ipomoea, pre-emergence, 0.893 lb/A, read-out: % plant inhibition): 85%
inhibition at 5043.82 g/ha (Morning Glory [3]; Ipomoea, pre-emergence, 4.5 lb/A, read-out: % plant inhibition): 85%
inhibition at 40.0143 g/ha (Yellow Foxtail [4]; 0.0357 lb/A): 0%
inhibition at 200.072 g/ha (Yellow Foxtail [4]; 0.1785 lb/A): 0%
inhibition at 1000.92 g/ha (Yellow Foxtail [4]; 0.893 lb/A): 35%
inhibition at 5043.82 g/ha (Yellow Foxtail [4]; 4.5 lb/A): 80%
% plant inhibition (Cocklebur; 0.893 lb/A): 35%
inhibition at 40.0143 g/ha (Cocklebur; Xanthium strumarium, pre-emergence, 0.0357 lb/A, read-out: % plant inhibition): 0%
inhibition at 1000.92 g/ha (Cocklebur; Xanthium strumarium, pre-emergence, 0.893 lb/A, read-out: % plant inhibition): 55%
inhibition at 5043.82 g/ha (Cocklebur; Xanthium strumarium, pre-emergence, 4.5 lb/A, read-out: % plant inhibition): 90%
inhibition at 40.0143 g/ha (Rice; 0.0357 lb/A): 0%
inhibition at 5043.82 g/ha (Rice; 4.5 lb/A): 0%
% plant inhibition (Velvetleaf [5]; 0.893 lb/A): 98%
inhibition at 40.0143 g/ha (Velvetleaf [5]; Abutilon theophrasti, pre-emergence, 0.0357 lb/A, read-out: % plant inhibition): 0%
inhibition at 1000.92 g/ha (Velvetleaf [5]; Abutilon theophrasti, pre-emergence, 0.893 lb/A, read-out: % plant inhibition): 100%
inhibition at 5043.82 g/ha (Velvetleaf [5]; Abutilon theophrasti, pre-emergence, 4.5 lb/A, read-out: % plant inhibition): 100%
inhibition at 40.0143 g/ha (Soybean; 0.0357 lb/A): 0%
inhibition at 200.072 g/ha (Soybean; 0.1785 lb/A): 0%
inhibition at 1000.92 g/ha (Soybean; 0.893 lb/A): 40%
inhibition at 5043.82 g/ha (Soybean; 4.5 lb/A): 55%
% plant inhibition (Common Chickweed; 0.893 lb/A): 10%
inhibition at 7.95803 g/ha (Common Chickweed; post-emergence, 0.0071 lb/A, read-out: % plant inhibition): 0%
inhibition at 40.0143 g/ha (Common Chickweed; post-emergence, 0.0357 lb/A, read-out: % plant inhibition): 0%
inhibition at 200.072 g/ha (Common Chickweed; post-emergence, 0.1785 lb/A, read-out: % plant inhibition): 0%
inhibition at 5043.82 g/ha (Common Chickweed; post-emergence, 4.5 lb/A, read-out: % plant inhibition): 35%
inhibition at 7.95803 g/ha (Corn [6]; 0.0071 lb/A): 0%
inhibition at 40.0143 g/ha (Corn [6]; 0.0357 lb/A): 0%
inhibition (Corn [6]; 0.1725 lb/A): 30%
inhibition at 200.072 g/ha (Corn [6]; 0.1785 lb/A): 20%
inhibition at 5043.82 g/ha (Corn [6]; 4.5 lb/A): 75%
inhibition at 7.95803 g/ha (Yellow Nutsedge [7]; 0.0071 lb/A): 0%
inhibition at 40.0143 g/ha (Yellow Nutsedge [7]; 0.0357 lb/A): 0%
inhibition (Yellow Nutsedge [7]; 0.1725 lb/A): 0%
inhibition at 200.072 g/ha (Yellow Nutsedge [7]; 0.1785 lb/A): 0%
inhibition at 1000.92 g/ha (Yellow Nutsedge [7]; 0.893 lb/A): 0%
inhibition at 5043.82 g/ha (Yellow Nutsedge [7]; 4.5 lb/A): 0%
% plant inhibition (Morning Glory [8]; 0.893 lb/A): 100%
inhibition at 7.95803 g/ha (Morning Glory [8]; Ipomoea, post-emergence, 0.0071 lb/A, read-out: % plant inhibition): 0%
inhibition at 40.0143 g/ha (Morning Glory [8]; Ipomoea, post-emergence, 0.0357 lb/A, read-out: % plant inhibition): 0%
inhibition (Morning Glory [8]; Ipomoea, post-emergence, 0.1725 lb/A, read-out: % plant inhibition): 65%
inhibition at 200.072 g/ha (Morning Glory [8]; Ipomoea, post-emergence, 0.1785 lb/A, read-out: % plant inhibition): 75%
inhibition at 1000.92 g/ha (Morning Glory [8]; Ipomoea, post-emergence, 0.893 lb/A, read-out: % plant inhibition): 85%
inhibition at 5043.82 g/ha (Morning Glory [8]; Ipomoea, post-emergence, 4.5 lb/A, read-out: % plant inhibition): 95%
inhibition at 7.95803 g/ha (Yellow Foxtail [9]; 0.0071 lb/A): 0%
inhibition at 40.0143 g/ha (Yellow Foxtail [9]; 0.0357 lb/A): 0%
inhibition at 200.072 g/ha (Yellow Foxtail [9]; 0.1785 lb/A): 20%
inhibition at 5043.82 g/ha (Yellow Foxtail [9]; 4.5 lb/A): 65%
inhibition at 7.95803 g/ha (Blackgrass; Table 4a): 0%
inhibition at 7.95803 g/ha (Blackgrass; Table 5a): 0%
inhibition at 40.0143 g/ha (Blackgrass; Table 4a): 0%
inhibition at 40.0143 g/ha (Blackgrass; Table 5a): 0%
inhibition (Blackgrass; 0.1725 lb/A, Table 4a): 0%
inhibition at 200.072 g/ha (Blackgrass; 0.1785 lb/A, Table 4a): 0%
inhibition at 1000.92 g/ha (Blackgrass; Table 4a): 0%
inhibition at 1000.92 g/ha (Blackgrass; Table 5a): 35%
inhibition at 5043.82 g/ha (Blackgrass; Table 4a): 0%
inhibition at 5043.82 g/ha (Blackgrass; Table 5a): 45%
% plant inhibition (Velvetleaf [10]; 0.893 lb/A): 70%
inhibition at 7.95803 g/ha (Velvetleaf [10]; Abutilon theophrasti, post-emergence, 0.0071 lb/A, read-out: % plant inhibition): 0%
inhibition at 40.0143 g/ha (Velvetleaf [10]; Abutilon theophrasti, post-emergence, 0.0357 lb/A, read-out: % plant inhibition): 0%
inhibition at 200.072 g/ha (Velvetleaf [10]; Abutilon theophrasti, post-emergence, 0.1785 lb/A, read-out: % plant inhibition): 45%
inhibition at 1000.92 g/ha (Velvetleaf [10]; Abutilon theophrasti, post-emergence, 0.893 lb/A, read-out: % plant inhibition): 75%
inhibition at 5043.82 g/ha (Velvetleaf [10]; Abutilon theophrasti, post-emergence, 4.5 lb/A, read-out: % plant inhibition): 100%
